Where two headings read alike, the source gives them in different places. One block for each molecule: values may come before it.
Key:
LDHB [1] = biological target: T1, LDHB (Homo sapiens, UniProt P07195); assay: LDHB enzyme assay by RapidFire-MS (NADH to NAD+ conversion); assay type: biochemical; details: RF-MS
T1 construct: purchased R&D Systems
Description: (§1) To compare the selectivity potency of the 22 selected compounds, we evaluated the compounds against human LDHB and LDHA by RF-MS. […] The Km value was also determined for the LDHA reaction. All EC50 values are listed in Supplementary Table 1.
We screened for compounds (final concentration: 10 μM) within pooled libraries consisting of more than 345,000 compounds. Each compound in DMSO (1 mM) was dispensed into 384-well V base plates (100 nL/well) using an Echo 555 acoustic dispenser (Labcyte, Sunnyvale, CA, USA). LDHB (5 μL) was diluted in assay buffer (20 mM Tris [pH 7.5], containing 2 mM DTT, 0.005% Triton X100, and 0.005% BSA) and dispensed into assay plates (final concentration: 0.25 nM). […] After incubation for 30 min at room temperature, acetonitrile (10 μL) and water (50 μL) were added to quench the reaction. All additions were performed using a Multidrop Combi (Thermo Fisher Scientific, Waltham, MA, USA). Assay plates were sealed and centrifuged (2700× g for 10 min) before storage at − 20 °C.
(§2) For RF-MS (Agilent, Wakefield, MA, USA), the enzyme reaction solution (5 μL) was aspirated directly from the quenched assay plates and loaded onto a C8 solid-phase extraction cartridge (Agilent) with a mobile phase of water containing DHAA (5 mM) for 2500 ms at a flow rate of 1.25 mL/min. The analytes were then co-eluted into the mass spectrometer using water:acetonitrile:acetone (2:1:1) containing ammonium acetate (5 mM) for 5000 ms at a flow rate of 1.0 ml/min. […] The extracted ion chromatograms for each transition were integrated and processed using RapidFire Integrator (Agilent). The data for each well were normalised using the monitoring product conversion with the ratio of AUCproduct / (AUCproduct + AUCsubstrate).
To determine the compound activities, percent inhibition data normalised to 0% (DMSO only) and 100% inhibition (no-enzyme control) wells were calculated. Data analysis was performed using the Tibco Spotfire (Boston, MA, USA) packages.
(§3) The reaction product was measured by RF-MS. To estimate the Km and Vmax values, the initial rates were fit to the Michaelis–Menten equation. EC50 and Hill slope calculation and curve fitting using four-parameter fits were performed using GraphPad Prism v6.07 (GraphPad Software, San Diego, CA, USA) or XLfit (IDBS, Guildford, UK) with nonlinear regression analysis, wherein the EC50 value equaled the concentration at which the inflection point of the fitted model was reached. The quality and robustness of the screening campaign process were determined by analysing the Z’ factor.

[2] = system: NC(=O)C1=CN([C@@H]2O[C@H](COP(=O)(O)OP(=O)(O)OC[C@H]3O[C@@H](n4cnc5c(N)ncnc54)[C@H](O)[C@@H]3O)[C@@H](O)[C@H]2O)C=CC1; assay: purified protein, by the assay type; details: other: 500 μM pyruvate, increasing NADH
CC(=O)C(=O)O = system: T2, CC(=O)C(=O)O; assay: Determination of substrate Km for LDHB (assay optimisation); assay type: biochemical, human; details: other: 500 µM NADH, increasing pyruvate
T2 construct: purchased R&D Systems
Description: Next, we optimised the assay conditions of RF-MS. Titration of human LDHB was examined at concentrations ranging from 0.0625 to 1 nM. […] We used 0.25 nM LDHB throughout assay development and screening to ensure enzyme activation. […] The Km values obtained from the two assays were consistent with the reported values for LDHB[15],[16].
as §3
Data were fitted to the Michaelis–Menten equations to obtain the kinetic constant Km using GraphPad Prism. Data are shown as mean ± standard deviation (n = 4).

Cellular activity = assay type: cell-based
human LDHA = biological target: T3, human LDHA (Homo sapiens, UniProt P00338); assay: LDHA enzyme assay by RapidFire-MS; assay type: biochemical
T3 construct: purchased R&D Systems
Description: as §1
These concentrations were chosen based on fitting to the Michaelis–Menten model with the Km values (Supplementary Figure S2).
as §2
To determine the compound activities, percent inhibition data normalised to 0% (DMSO only) and 100% inhibition (no-enzyme control) wells were calculated. […]
The reaction product was measured by RF-MS. […] The quality and robustness of the screening campaign process were determined by analysing the Z’ factor.

LDHB [3] = biological target: T1, LDHB; assay: Time-dependent inhibition (pre-incubation of AXKO-0046 and LDHB); assay type: biochemical; details: pre-incubation with LDHB up to 120 min
Description: We then assessed whether there was any time dependence to the onset of inhibition by varying the time for which AXKO-0046 and LDHB were pre-incubated before initiating the enzymatic reaction.
Supplementary Figure 4. Time-dependent inhibition of LDHB activity by AXKO-0046. Time-dependent inhibition was measured by pre-incubating AXKO-0046 and LDHB for 0, 30, 60, or 120 min, as indicated, before initiating the LDHB reaction. Data are shown as mean (n = 2).

LDHB [4] = biological target: T1, LDHB; assay: Substrate-competition assay (varying NADH or pyruvate); assay type: biochemical; details: for Vmax (NADH): NADH titration; for Vmax (Pyruvate): pyruvate titration
Description: To elucidate the underlying inhibitory mechanism, substrate competition assays were performed. LDHB inhibitory activity for AXKO-0046 was assessed at different concentrations of the substrate.
Moreover, the Km and Vmax values for LDHB were determined in the presence AXKO-0046. As the AXKO-0046 concentration increased in the reaction, both Vmax and Km decreased proportionally (Supplementary Fig. 3 and Table 1). The Lineweaver–Burke plot lines were nearly parallel (Fig. 3c,d), indicating uncompetitive inhibition with a strong preference for inhibiting the enzyme–substrate complex.
A solution of AXKO-0046 (0.00001, 0.0001, 0.001, 0.01, 0.1, 1, 10, and 100 μM) with 0.25 nM LDHB was then added. The enzymatic reactions were performed at room temperature for 15 min in triplicate. At each inhibitor concentration, the dependence of the initial reaction velocity on the substrate concentration was fitted to a nonlinear Michaelis–Menten model to obtain the Km and Vmax values using GraphPad Prism. Lineweaver–Burk plots were generated by superimposing the data of 1/[velocity] and 1/[substrate] and the line corresponding to the Michaelis–Menten nonlinear fit.

[5] = read-out: EC50 (μM), LDHB inhibitory activity of AXKO-0046 derivatives

T1 sequence (P07195 whole entry): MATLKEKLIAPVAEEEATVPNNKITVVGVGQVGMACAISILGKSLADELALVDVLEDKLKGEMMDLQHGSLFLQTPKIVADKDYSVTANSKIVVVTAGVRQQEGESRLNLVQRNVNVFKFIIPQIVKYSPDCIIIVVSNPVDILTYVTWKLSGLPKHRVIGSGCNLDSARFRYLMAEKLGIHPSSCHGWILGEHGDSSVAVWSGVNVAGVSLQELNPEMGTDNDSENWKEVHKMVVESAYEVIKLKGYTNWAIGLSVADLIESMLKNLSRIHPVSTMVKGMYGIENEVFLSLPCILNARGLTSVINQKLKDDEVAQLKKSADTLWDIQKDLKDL

EC50 (LDHB [1]; [5]): 8.3 µM
Molecule: CN(CCc1c(CN(C)C2CCCCCC2)[nH]c2ccccc12)Cc1ccccc1 [AXKO-0058]

EC50 (LDHB [1]; [5]): 7.4 µM
Molecule: CN(Cc1[nH]c2ccccc2c1CCNCc1ccccc1)C1CCCCCC1 [AXKO-0077]

Molecule: human LDHB (Homo sapiens)
Km [2]: 64 µM
Km (CC(=O)C(=O)O): 116 µM

EC50 (LDHB [1]; [5]): 0.25 µM
Molecule: CN(CCc1c(CNC2CCCCCC2)[nH]c2ccccc12)Cc1ccccc1 [AXKO-0060]

inhibition of LDHA (concentration response curve) (human LDHA): did not inhibit LDHA
EC50 (LDHB [1]; four-parameter fit, read-out: EC50 for LDHB): 0.042 µM
mode of inhibition with respect to NADH and pyruvate (LDHB [4]): uncompetitive with both substrates
Vmax (NADH) (LDHB [4]; AXKO-0046 0.00001 µM, 100 μM pyruvate): 10.1 µM/min
Vmax (Pyruvate) (LDHB [4]; AXKO-0046 0.00001 µM, 100 μM NADH): 7.3 µM/min
Vmax (NADH) (LDHB [4]; AXKO-0046 0.0001 µM, 100 μM pyruvate): 10.7 µM/min
Vmax (Pyruvate) (LDHB [4]; AXKO-0046 0.0001 µM, 100 μM NADH): 6.9 µM/min
Vmax (NADH) (LDHB [4]; AXKO-0046 0.001 µM, 100 μM pyruvate): 9.7 µM/min
Vmax (Pyruvate) (LDHB [4]; AXKO-0046 0.001 µM, 100 μM NADH): 6.5 µM/min
Vmax (NADH) (LDHB [4]; AXKO-0046 0.01 µM, 100 μM pyruvate): 8.3 µM/min
Vmax (Pyruvate) (LDHB [4]; AXKO-0046 0.01 µM, 100 μM NADH): 6.6 µM/min
Vmax (NADH) (LDHB [4]; AXKO-0046 0.1 µM, 100 μM pyruvate): 6.0 µM/min
Vmax (Pyruvate) (LDHB [4]; AXKO-0046 0.1 µM, 100 μM NADH): 4.3 µM/min
Vmax (NADH) (LDHB [4]; AXKO-0046 1 µM, 100 μM pyruvate): 2.9 µM/min
Vmax (Pyruvate) (LDHB [4]; AXKO-0046 1 µM, 100 μM NADH): 2.0 µM/min
Vmax (NADH) (LDHB [4]; AXKO-0046 10 µM, 100 μM pyruvate): 2.1 µM/min
Vmax (Pyruvate) (LDHB [4]; AXKO-0046 10 µM, 100 μM NADH): 1.6 µM/min
Vmax (NADH) (LDHB [4]; AXKO-0046 100 µM, 100 μM pyruvate): 2.2 µM/min
Vmax (Pyruvate) (LDHB [4]; AXKO-0046 100 µM, 100 μM NADH): 1.6 µM/min
IC50 (LDHB [4]; NADH 30 μM, 100 μM pyruvate): 702 nM
IC50 (LDHB [4]; NADH 50 μM, 100 μM pyruvate): 330 nM
IC50 (LDHB [4]; NADH 100 μM, 100 μM pyruvate): 223 nM
IC50 (LDHB [4]; NADH 200 μM, 100 μM pyruvate): 94.2 nM
IC50 (LDHB [4]; Pyruvate 30 μM, 100 μM NADH): 197 nM
IC50 (LDHB [4]; Pyruvate 50 μM, 100 μM NADH): 114 nM
IC50 (LDHB [4]; Pyruvate 200 μM, 100 μM NADH): 96.3 nM
Molecule: c1ccc(CNCCc2c(CNC3CCCCCC3)[nH]c3ccccc23)cc1 [AXKO-0046, N-({3-[2-(benzylamino)ethyl]-1H-indol-2-yl}methyl) cycloheptanamine]
cellular activity (Cellular activity): no potent cellular activity
inhibition potential with pre-incubation time (LDHB [3]): did not increase with pre-incubation time

EC50 (LDHB [1]; [5]): > 100 µM
Molecule: Cn1c(CNC2CCCCCC2)c(CCNCc2ccccc2)c2ccccc21 [AXKO-0067]

From article PMC8560939 (Scientific Reports, 2021)
